The target of data set [1] is T1, GABABR1b/GABABR2 receptors co-expressed with the chimeric G protein Gαq-z5 in tsA201 cells (Rattus norvegicus, UniProt Q9Z0U4).
T1 construct: expressed in transfected cells; host or cells: tsA201 cells (transformed HEK293), transient transfection with pcDNA3.1 plasmids using SuperFect
Briefly: GABAB agonist activity, intracellular calcium (Fluo-4) in transfected tsA201 cells. The format is cell-based. Particulars: Ca2+ response; for pEC50: agonist, tsA201 cells transfected with GABAB1b/GABAB2/Gqz5; for GABABR agonistic activity (in words): tsA201 cells. From the text: We have previously described a robust pharmacological assay of heterodimeric GABABR1b/GABABR2 receptors co-expressed with the chimeric G protein Gαq-z5 in tsA201 cells (a transformed HEK293 cell line). Co-expression of Gαq-z5 convert the endogenous coupling to the Gαi/o signaling pathway to the Gq pathway, which generally leads to more robust assays measured as increases in inositol phosphates or intracellular calcium levels.
Culture media, serum and antibiotics were obtained from Invitrogen (Paisley, UK). The rat GABABR plasmids and the Gαq-z5 construct were generous gifts from Dr. Janet Clark (National Institute of Health, Bethesda, MD, USA) and Dr. Bruce Conklin (University of California, San Francisco, CA, USA). The tsA201 cells were a generous gift from Dr. Penelope S. V. Jones (University of California, San Diego, CA, USA).
One million cells were split into a 10 cm tissue culture plate and transfected the following day with 0.7 μg GABABR1b-pcDNA3.1, 3.5 μg GABABR2-pcDNA3.1 and 0.7μg Gαq-z5-pcDNA using SuperFect as a DNA carrier according to the protocol by the manufacturer (Qiagen, Hilden, Germany). The day after transfection, cells were split into one poly-D-lysine coated 96-well black-walled–clear-bottomed tissue culture plates in the same medium as mentioned above and incubated overnight. The following day the measurement of intracellular calcium was performed as follows. The media was exchanged with Hanks balanced saline solution containing 1 mM CaCl2, 1 mM MgCl2, 20 mM HEPES, 2.5 mM probencid and 4 μM Fluo-4AM (pH = 7.4). […] Cells were then washed twice with the same buffer without Fluo-4AM and finally 100 μL of the buffer was left in the wells. […] Fluorescence readings were measured for 45 s after addition of ligand and response was calculated as peak response minus basal level. […] Twenty min after application of ligand, 10 μM GABA was added to the well and fluorescence was measured as above.
All data analysis has been carried out using GraphPad Prism version 6.0c for Mac OS X (GraphPad Software, San Diego, CA, USA). Concentration-response curves have been fitted by non-linear regression using the equation for sigmoidal concentration-response function:R = Rmin + (Rmax − Rmin)/(1 + 10 ^ (logEC50 − X)) in which X is the logarithm of the agonist concentration, R is the response, Rmax is the maximal response, Rmin is the minimal response and EC50 is the concentration giving half maximum response.
Background: Calcium flux is commonly read through the fluorescence of an indicator in the cells.

The target of data set [2] is T1, GABABR1b/GABABR2 receptors co-expressed with the chimeric G protein Gαq-z5 in tsA201 cells. Briefly: GABAB antagonist test, intracellular calcium (Fluo-4) against 10 μM GABA in transfected tsA201 cells. Format: cell-based. Particulars: 1 mM concentration against 10 μM GABA. From the text:
Regarding the structure-activity relationship in the synthesized series 1a–i, it has to be mentioned that mono-substitution on the aromatic moiety attached to the 3-position of the DAVA backbone with a halogen, especially a para-chloro, is optimum for GABABR agonistic activity. The synthesized compounds which evoked GABABR agonistic activity have the following decreasing order of activity: 1a > 1e > 1f.
TsA201 cells (a transformed human embryonic kidney (HEK) 293 cell line) were maintained at 37 °C in a humidified 5% CO2 incubator in Dulbecco’s modified Eagle medium (DMEM) supplemented with penicillin (100 U/mL), streptomycin ([…]) and 10% fetal calf serum. One million cells were split into a 10 cm tissue culture plate and transfected the following day with 0.7 μg GABABR1b-pcDNA3.1, 3.5 μg GABABR2-pcDNA3.1 and 0.7μg Gαq-z5-pcDNA using SuperFect as a DNA carrier according to the protocol by the manufacturer (Qiagen, Hilden, Germany). The day after transfection, cells were split into one poly-D-lysine coated 96-well black-walled–clear-bottomed tissue culture plates in the same medium as mentioned above and incubated overnight. The following day the measurement of intracellular calcium was performed as follows. The media was exchanged with Hanks balanced saline solution containing 1 mM CaCl2, 1 mM MgCl2, 20 mM HEPES, 2.5 mM probencid and 4 μM Fluo-4AM (pH = 7.4). The cells were incubated for 1 h at 37 °C in a humidified 5% CO2 incubator. Cells were then washed twice with the same buffer without Fluo-4AM and finally 100 μL of the buffer was left in the wells. The cell plate was then transferred to the NovoStar (BMG Labtechnologies, Offenburg, Germany) and the basal fluorescence level was adjusted to ~10,000 fluorescence units (FU) using excitation/emission wavelengths of 485–520 nm, respectively. Fluorescence readings were measured for 45 s after addition of ligand and response was calculated as peak response minus basal level. […] Twenty min after application of ligand, 10 μM GABA was added to the well and fluorescence was measured as above.

A further data set deals with GABAB receptors. Further details: method as in earlier work. Particulars: cited from earlier work.

The text below walks through data of publication PMC6270091, “GABAB-Agonistic Activity of Certain Baclofen Homologues” (Molecules, 2013).

pEC50: −log10 of the molar value. “Also recorded” adds a separate entry of the source. Counter-ions that a name gives are not always drawn.

T1 sequence (Q9Z0U4 1-844 isoform Q9Z0U4-3): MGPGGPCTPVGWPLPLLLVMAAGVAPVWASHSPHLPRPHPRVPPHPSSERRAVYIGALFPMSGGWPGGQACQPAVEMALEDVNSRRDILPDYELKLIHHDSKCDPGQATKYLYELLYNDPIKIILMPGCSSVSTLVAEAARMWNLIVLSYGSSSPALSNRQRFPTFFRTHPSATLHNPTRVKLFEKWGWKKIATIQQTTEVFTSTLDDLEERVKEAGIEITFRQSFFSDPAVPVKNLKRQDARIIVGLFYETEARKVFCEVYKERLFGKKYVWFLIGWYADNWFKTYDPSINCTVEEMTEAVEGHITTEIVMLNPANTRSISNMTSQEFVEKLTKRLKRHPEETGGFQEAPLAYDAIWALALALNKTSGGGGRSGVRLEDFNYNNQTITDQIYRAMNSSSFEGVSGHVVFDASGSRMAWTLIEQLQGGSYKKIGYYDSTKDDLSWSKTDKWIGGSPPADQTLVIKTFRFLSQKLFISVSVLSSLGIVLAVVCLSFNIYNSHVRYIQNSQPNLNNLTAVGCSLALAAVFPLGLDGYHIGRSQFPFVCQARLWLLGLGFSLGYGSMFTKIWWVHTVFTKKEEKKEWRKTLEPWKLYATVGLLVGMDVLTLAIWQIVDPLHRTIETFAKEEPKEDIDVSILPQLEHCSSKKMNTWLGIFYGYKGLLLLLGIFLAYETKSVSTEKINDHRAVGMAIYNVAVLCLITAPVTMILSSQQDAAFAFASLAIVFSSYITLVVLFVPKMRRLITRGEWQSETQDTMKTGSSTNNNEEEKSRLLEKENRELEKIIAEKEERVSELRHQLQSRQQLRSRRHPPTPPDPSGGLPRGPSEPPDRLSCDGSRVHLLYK
T1 sequence (O88871 41-940 partner): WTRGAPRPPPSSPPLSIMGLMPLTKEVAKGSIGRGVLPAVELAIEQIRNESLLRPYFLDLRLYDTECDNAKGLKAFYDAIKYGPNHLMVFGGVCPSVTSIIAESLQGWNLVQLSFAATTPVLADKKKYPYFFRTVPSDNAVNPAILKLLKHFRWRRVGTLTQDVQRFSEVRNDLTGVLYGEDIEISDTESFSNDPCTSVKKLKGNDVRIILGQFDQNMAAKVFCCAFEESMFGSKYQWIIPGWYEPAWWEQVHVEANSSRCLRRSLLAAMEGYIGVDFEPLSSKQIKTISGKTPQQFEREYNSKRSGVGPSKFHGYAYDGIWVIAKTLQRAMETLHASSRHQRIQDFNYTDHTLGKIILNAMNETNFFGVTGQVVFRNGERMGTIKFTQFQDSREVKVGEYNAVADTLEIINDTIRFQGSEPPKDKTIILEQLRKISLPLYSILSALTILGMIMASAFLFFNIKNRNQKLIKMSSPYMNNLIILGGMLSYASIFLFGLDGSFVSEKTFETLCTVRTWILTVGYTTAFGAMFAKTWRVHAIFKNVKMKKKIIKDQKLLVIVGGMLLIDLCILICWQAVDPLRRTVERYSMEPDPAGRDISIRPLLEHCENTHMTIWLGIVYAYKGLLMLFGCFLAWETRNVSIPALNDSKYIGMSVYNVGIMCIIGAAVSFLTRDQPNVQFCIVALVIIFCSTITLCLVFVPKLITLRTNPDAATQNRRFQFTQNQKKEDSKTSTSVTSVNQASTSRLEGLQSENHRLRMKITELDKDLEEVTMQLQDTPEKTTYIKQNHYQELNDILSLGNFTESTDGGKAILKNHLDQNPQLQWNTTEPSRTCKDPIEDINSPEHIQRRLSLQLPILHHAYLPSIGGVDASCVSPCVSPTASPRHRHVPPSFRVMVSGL

The melting point is the temperature of the solid-liquid transition. `COc1cccc(C(CCN)CC(=O)O)c1` (racemic) (as salt: hydrochloride) [Compound 1g, (R,S)-5-Amino-3-(3-methoxyphenyl)pentanoic acid hydrochloride] showed a melting point of 182 to 184 °C. Take `NCCC(CC(=O)O)c1ccccc1` (racemic) (as salt: hydrochloride) [Compound 1d, (R,S)-5-Amino-3-phenylpentanoic acid hydrochloride]: the melting point was 195 to 196 °C. `Cc1ccc(C(CCN)CC(=O)O)cc1` (racemic) (as salt: hydrochloride) [Compound 1c, (R,S)-5-Amino-3-(4-methylphenyl)pentanoic acid hydrochloride] yielded a melting point of 204 to 206 °C. For orientation: pEC50 means the negative decadic logarithm of the EC50, by convention in mol/L. Turning to `NCCC(CC(=O)O)c1ccc(Cl)c(Cl)c1` (racemic) [Compound 1e, (R,S)-5-Amino-3-(3,4-chlorophenyl)pentanoic acid hydrochloride], the pEC50 in data set [1] was 3.89. For the compound `NCCC(CC(=O)O)c1ccc(Cl)c(Cl)c1` (racemic) (as salt: hydrochloride) [Compound 1e, (R,S)-5-Amino-3-(3,4-chlorophenyl)pentanoic acid hydrochloride], the melting point is 201 to 203 °C. Take `NCCC(CC(=O)O)c1ccc(Cl)cc1Cl` (racemic) (as salt: hydrochloride) [Compound 1b, (R,S)-5-Amino-3-(2,4-chlorophenyl)pentanoic acid hydrochloride]: the melting point was 215 to 217 °C. `COc1ccc(C(CCN)CC(=O)O)cc1` (racemic) [Compound 1h, (R,S)-5-Amino-3-(4-methoxyphenyl)pentanoic acid hydrochloride]: in data set [1], the pEC50 was less than 3.52. The GABABR antagonist activity entry in data set [2] is on record as “none of these compounds were effective”. For `COc1cccc(C(CCN)CC(=O)O)c1` (racemic) [Compound 1g, (R,S)-5-Amino-3-(3-methoxyphenyl)pentanoic acid hydrochloride], the pEC50 in data set [1] was less than 3.52. Besides, in data set [2], the GABABR antagonist activity entry is given as “none of these compounds were effective”. Take `NCCC(CC(=O)O)c1ccc(Cl)cc1` (racemic) [Compound 1a, (R,S)-5-Amino-3-(4-chlorophenyl)pentanoic acid hydrochloride]: the pEC50 in data set [1] is 4.34. `NCCC(CC(=O)O)c1ccc(F)cc1` (racemic) (as salt: hydrochloride) [Compound 1f, (R,S)-5-Amino-3-(4-fluorophenyl)pentanoic acid hydrochloride] yielded a melting point of 208 to 210 °C. With `NCCC(CC(=O)O)c1ccc(F)cc1` (racemic) [Compound 1f, (R,S)-5-Amino-3-(4-fluorophenyl)pentanoic acid hydrochloride], in data set [1], the pEC50 was 3.77.

As for `NCCCC(C(=O)O)c1ccc(Cl)cc1` (racemic) [Compound 3, (R,S)-5-amino-2-(4-chlorophenyl)pentanoic acid], the “interaction with GABAB receptors” value in the data set with GABAB receptors is reported as “does not interact detectably”. In the case of `Cc1ccc(C(CCN)CC(=O)O)cc1` (racemic) [Compound 1c, (R,S)-5-Amino-3-(4-methylphenyl)pentanoic acid hydrochloride], in data set [1], the negative logarithm of the EC50 (pEC50) was less than 3.52. In addition, the GABABR antagonist activity result in data set [2] is reported as “none of these compounds were effective”.

Compound `NCCC(CC(=O)O)c1ccc(Cl)cc1` (racemic) (as salt: hydrochloride) [Compound 1a, (R,S)-5-Amino-3-(4-chlorophenyl)pentanoic acid hydrochloride] had a melting point of 201 to 203 °C. `CC(CCN)CC(=O)O` (racemic) [Compound 1i, (R,S)-5-amino-3-methylpentanoic acid] came in with a melting point of 164 to 165 °C. Also, in data set [1], the “GABABR agonistic activity (in words)” value is “loss of GABABR agonistic activity; also recorded: devoid of GABABR agonistic activity” and the pEC50 was less than 3.52. In addition, the GABABR antagonist activity entry in data set [2] is given as “none of these compounds were effective”.

`NCCC(CC(=O)O)c1ccc(Cl)cc1Cl` (racemic) [Compound 1b, (R,S)-5-Amino-3-(2,4-chlorophenyl)pentanoic acid hydrochloride]: in data set [1], the “GABABR agonistic activity (in words)” value is “lack of GABABR agonistic activity” and the pEC50 is less than 3.52. The GABABR antagonist activity result in data set [2] is “none of these compounds were effective”. In turn, `COc1ccc(C(CCN)CC(=O)O)cc1` (racemic) (as salt: hydrochloride) [Compound 1h, (R,S)-5-Amino-3-(4-methoxyphenyl)pentanoic acid hydrochloride] yielded a melting point of 194 to 195 °C.

With `NCCC(CC(=O)O)c1ccccc1` (racemic) [Compound 1d, (R,S)-5-Amino-3-phenylpentanoic acid hydrochloride], the pEC50 in data set [1] is less than 3.52. The GABABR antagonist activity entry in data set [2] is “none of these compounds were effective”.
